Data set [1] deals with Vesicular stomatitis virus. The experiment in a line: Antiviral activity against vesicular stomatitis virus infected in human WISH cells. The conditions noted are these: for EC50: read-out: ED50 (the source's name). Type of data set: functional.
A further data set relates to WISH. Put plainly: Cytotoxicity against human WISH cells. It counts as cell-based.
Data set [2] is described as follows: Selectivity index, ratio of toxic concentration for human WISH cells to ED50 for vesicular stomatitis virus infected in human WISH cells. It counts as toxicity, cell-based. As to conditions: read-out: Selectivity Index.

This is an account of results in ChEMBL document CHEMBL3351685, “Synthesis and quantitative structure-activity relationship (QSAR) analysis of some novel oxadiazolo[3,4-d]pyrimidine nucleosides derivatives as antiviral agents” (Bioorg Med Chem Lett, 2015).

Active and inactive are the calls of the source. The calls are words filed in the database; no cut-off is given here.

Take `O=c1[nH]c(=O)n(COC(CO)CO)c2no[n+]([O-])c12`: the EC50 in data set [1] came to 555 µM. In the data set on WISH, this compound showed an Activity of 2279 µmol/L.

Turning to `CCn1c(=O)c2c(no[n+]2[O-])n([C@@H]2O[C@H](COC(C)=O)[C@@H](OC(C)=O)[C@H](OC(C)=O)[C@H]2OC(C)=O)c1=O`, in data set [1], the EC50 was determined as 1210 µM. For the same compound, the Activity in the data set with WISH was 1345 µmol/L.

With `O=c1[nH]c(=O)n([C@@H]2O[C@H](COCc3ccccc3)[C@@H](OCc3ccccc3)[C@H]2OCc2ccccc2)c2no[n+]([O-])c12`, the EC50 in data set [1] came out at 736 µM. Besides, the Activity with WISH was found to be 650 µmol/L.

In the case of `CC(=O)OC[C@H]1O[C@@H](n2c(=O)n(C)c(=O)c3c2no[n+]3[O-])[C@H](OC(C)=O)[C@H]1OC(C)=O`, in data set [1], the ED50 entry was “inactive”. The compound further came in with an Activity with WISH of 477 µmol/L.

`O=c1[nH]c(=O)n([C@@H]2O[C@H](CO)[C@@H](O)[C@H]2O)c2no[n+]([O-])c12`: the EC50 in data set [1] worked out at 78 µM. The same compound yielded an Activity in the data set with WISH of 2095 µmol/L. In addition, the selectivity ratio in data set [2] is 26.9.

In the case of `CCn1c(=O)c2c(no[n+]2[O-])n(COCCOC(C)=O)c1=O`, the ED50 result in data set [1] was “inactive”. This compound had an Activity in the data set on WISH of 408 µmol/L.

Regarding `CC(=O)OC[C@H]1O[C@H](n2c(=O)[nH]c(=O)c3c2no[n+]3[O-])[C@@H](OC(C)=O)[C@@H]1OC(C)=O`, the EC50 in data set [1] is 691 µM. The same compound gave an Activity in the data set on WISH of 398 µmol/L.

In the case of `CC(=O)OC[C@H]1O[C@@H](n2c(=O)n(C)c(=O)c3c2no[n+]3[O-])[C@H](OC(C)=O)[C@@H]1OC(C)=O`, in data set [1], the EC50 worked out at 346 µM. Further, the Activity in the data set with WISH was determined as 1460 µmol/L.

As for `O=c1[nH]cnc2c1ncn2[C@H]1CC[C@@H](CO)O1` [DIDANOSINE], in data set [1], the EC50 was found to be 792 µM. In the data set with WISH, the Activity turned out to be 2646 µmol/L. For the same compound, in data set [2], the selectivity ratio was 3.34.

As to `CCn1c(=O)c2c(no[n+]2[O-])n([C@@H]2O[C@H](COCc3ccccc3)[C@@H](OCc3ccccc3)[C@H]2OCc2ccccc2)c1=O`, the EC50 in data set [1] came out at 498 µM. Further, the Activity in the data set on WISH came to 1026 µmol/L.

For the compound `CC(=O)OC[C@H]1O[C@@H](n2c(=O)[nH]c(=O)c3c2no[n+]3[O-])[C@H](OC(C)=O)[C@@H]1OC(C)=O`, in data set [1], the EC50 turned out to be 345 µM. In the data set on WISH, this compound yielded an Activity of 1459 µmol/L.

`CCn1c(=O)c2c(no[n+]2[O-])n([C@@H]2O[C@H](COC(C)=O)[C@@H](OC(C)=O)[C@H]2OC(C)=O)c1=O`: the EC50 in data set [1] was determined as 1230 µM. In addition, the Activity in the data set with WISH was found to be 377 µmol/L.

Turning to `CC(=O)OC[C@H]1O[C@@H](n2c(=O)[nH]c(=O)c3c2no[n+]3[O-])[C@H](OC(C)=O)[C@@H](OC(C)=O)[C@@H]1OC(C)=O`, the ED50 result in data set [1] is “inactive”. For the same compound, in the data set on WISH, the Activity amounted to 1300 µmol/L.

For `CC(=O)OC[C@H]1O[C@H](n2c(=O)n(C)c(=O)c3c2no[n+]3[O-])[C@@H](OC(C)=O)[C@@H]1OC(C)=O`, the ED50 result in data set [1] was “inactive”. Further, in the data set with WISH, the Activity was 378 µmol/L.

With `CCn1c(=O)c2c(no[n+]2[O-])n(COC(COC(C)=O)COC(C)=O)c1=O`, the EC50 in data set [1] came to 651 µM. The Activity in the data set on WISH is 1475 µmol/L.

For `CC(=O)OC[C@H]1O[C@@H](n2c(=O)[nH]c(=O)c3c2no[n+]3[O-])[C@H](OC(C)=O)[C@H]1OC(C)=O`, the ED50 result in data set [1] was “inactive”. This compound also displayed an Activity in the data set on WISH of 387 µmol/L.

For `O=c1[nH]c(=O)n(COCCO)c2no[n+]([O-])c12`, the EC50 in data set [1] amounted to 636 µM. Moreover, the Activity in the data set with WISH amounted to 2561 µmol/L.

With `CC(=O)OCCOCn1c(=O)n(C)c(=O)c2c1no[n+]2[O-]`, in data set [1], the EC50 amounted to 650 µM. Moreover, the Activity with WISH came to 2077 µmol/L.

With `Cn1c(=O)c2c(no[n+]2[O-])n([C@@H]2O[C@H](COCc3ccccc3)[C@@H](OCc3ccccc3)[C@H]2OCc2ccccc2)c1=O`, the EC50 in data set [1] stood at 473 µM. The Activity in the data set with WISH came out at 1055 µmol/L.

`CC(=O)OCCOCn1c(=O)[nH]c(=O)c2c1no[n+]2[O-]`: in data set [1], the EC50 was found to be 651 µM. For the same compound, the Activity in the data set on WISH turned out to be 2083 µmol/L.

As to `CCn1c(=O)c2c(no[n+]2[O-])n([C@@H]2O[C@@H](COC(C)=O)[C@H](OC(C)=O)[C@H]2OC(C)=O)c1=O`, in data set [1], the ED50 result is “inactive”. In the data set on WISH, this compound yielded an Activity of 20 µmol/L.

Turning to `CC(=O)OC[C@@H]1O[C@@H](n2c(=O)[nH]c(=O)c3c2no[n+]3[O-])[C@H](OC(C)=O)[C@H]1OC(C)=O`, the EC50 in data set [1] amounted to 154 µM. The same compound had an Activity with WISH of 380 µmol/L.

Take `Nc1nc2c(ncn2COCCO)c(=O)[nH]1` [ACYCLOVIR]: the EC50 in data set [1] was 1410 µM. The compound further returned an Activity in the data set with WISH of 3414 µmol/L. Further, in data set [2], the selectivity ratio was 2.4.

Consider `CCn1c(=O)c2c(no[n+]2[O-])n([C@H]2O[C@H](COC(C)=O)[C@@H](OC(C)=O)[C@@H]2OC(C)=O)c1=O`, for which the EC50 in data set [1] was 574 µM. The same compound displayed an Activity with WISH of 1411 µmol/L.

In the case of `Cn1c(=O)c2c(no[n+]2[O-])n([C@@H]2O[C@H](COCc3ccccc3)[C@@H](OCc3ccccc3)[C@@H]2F)c1=O`, the EC50 in data set [1] was determined as 1500 µM. Also, the Activity in the data set with WISH amounted to 10 µmol/L.

Take `CC(=O)OC[C@@H]1O[C@@H](n2c(=O)n(C)c(=O)c3c2no[n+]3[O-])[C@H](OC(C)=O)[C@H]1OC(C)=O`: the EC50 in data set [1] was 135 µM. Further, the Activity in the data set on WISH was found to be 300 µmol/L.

Take `CCn1c(=O)c2c(no[n+]2[O-])n([C@@H]2O[C@H](COC(C)=O)[C@H](OC(C)=O)[C@H]2OC(C)=O)c1=O`: the EC50 in data set [1] was 1040 µM. The Activity in the data set on WISH is 356 µmol/L.
